From ChEMBL document CHEMBL1156449, “The nucleoside analog sangivamycin induces apoptotic cell death in breast carcinoma MCF7/adriamycin-resistant cells via protein kinase Cdelta and JNK activation” (J Biol Chem, 2007)
pIC50, pKi: −log10 of the molar value. Calls of active or inactive are those of the source. The calls are words filed in the database; no cut-off is given here.

Legend:
[1] = target: Transcription factor Jun (Homo sapiens) (UniProt P05412); assay: Reduction in induction of c-Jun phosphorylation in human multidrug resistant MCF/ADR cells transfected with c-Jun siRNA at 0.3 uM after 48 hrs by immunoblot analysis; type: cell-based
Chain of Transcription factor Jun (Homo sapiens) (P05412 whole entry): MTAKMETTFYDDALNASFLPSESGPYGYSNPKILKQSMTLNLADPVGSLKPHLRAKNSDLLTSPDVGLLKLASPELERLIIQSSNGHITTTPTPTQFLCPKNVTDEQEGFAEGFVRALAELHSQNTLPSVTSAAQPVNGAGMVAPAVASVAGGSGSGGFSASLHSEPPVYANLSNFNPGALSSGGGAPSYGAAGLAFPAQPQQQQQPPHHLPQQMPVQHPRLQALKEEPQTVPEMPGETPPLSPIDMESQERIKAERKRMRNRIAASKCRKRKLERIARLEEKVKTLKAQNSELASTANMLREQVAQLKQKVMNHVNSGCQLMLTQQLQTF

[2] = target: Transcription factor Jun (Homo sapiens) (UniProt P05412); assay: Reduction in induction of c-Jun expression in human multidrug resistant MCF/ADR cells at 0.3 uM after 48 hrs by immunoblot analysis in presence of pan-specific caspase inhibitor; type: cell-based
MCF/WT [3] = assay: Cytostatic effect in human drug sensitive MCF/WT cells assessed as slight increase in number of viable cells at 30 nM after 6 days by MTT colorimetric assay; type: functional, cell-based
MCF/ADR [4] = assay: Reduction in induction of apoptosis in SP600125 pretreated human multidrug resistant MCF/ADR cells assessed as reduction of cleavage of lamin A at 0.3 uM after 48 hrs by immunoblot analysis; type: functional, cell-based
[5] = Cell cycle arrest in human drug-sensitive MCF/WT cells assessed as accumulation at S phase at 0.3 uM after 24 hrs by propidium fluorescence flow cytometry; type: functional, cell-based
[6] = Inhibition of PKA
MDA-MB-231 = assay: Induction of apoptosis in human multidrug resistant MDA-MB-231 cells assessed as accumulation of PARP at 0.3 uM after 48 hrs by immunoblot analysis; type: functional, cell-based
MCF/WT [7] = assay: Induction of apoptosis in human drug-sensitive MCF/WT cells assessed as activation of caspase 6 at 0.3 uM by immunoblot analysis; type: functional, cell-based
MCF/ADR [8] = assay: Increase in Bax levels in human multidrug resistant MCF/ADR cells at 0.3 uM by immunoblot analysis; type: functional, cell-based
MCF/WT [9] = assay: Increase in Bcl-2 levels in human drug-sensitive MCF/WT cells at 0.3 uM by immunoblot analysis; type: functional, cell-based
[10] = target: Bcl-2-like protein 1 (Homo sapiens) (UniProt Q07817); assay: Inhibition of induction of Bcl-x/s phosphorylation in human multidrug resistant MCF/ADR cells at 0.3 uM after 48 hrs in presence of rottlerin; type: functional, cell-based
Chain of Bcl-2-like protein 1 (Homo sapiens) (Q07817 whole entry): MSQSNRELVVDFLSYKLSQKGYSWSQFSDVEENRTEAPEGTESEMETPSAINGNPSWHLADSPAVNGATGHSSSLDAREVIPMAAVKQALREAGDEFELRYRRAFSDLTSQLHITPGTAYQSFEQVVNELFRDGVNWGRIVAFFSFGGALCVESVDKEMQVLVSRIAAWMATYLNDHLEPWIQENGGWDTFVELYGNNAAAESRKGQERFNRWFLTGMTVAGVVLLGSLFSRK

[11] = target: Transcription factor Jun (Homo sapiens) (UniProt P05412); assay: Reduction in induction of c-Jun phosphorylation in human multidrug resistant MCF/ADR cells at 0.3 uM after 48 hrs by immunoblot analysis in presence of rottlerin; type: cell-based
MCF/WT [12] = assay: Increase in p21CIP accumulation in human drug-sensitive MCF/WT cells at 0.3 uM after 48 hrs by immunoblot analysis; type: functional, cell-based
MCF/ADR [13] = assay: Induction of apoptosis in human multidrug resistant MCF/ADR cells assessed as annexin V binding to phosphatidylserine at 0.3 uM after 6 hrs; type: functional, cell-based
MCF/ADR [14] = assay: Reduction in induction of apoptosis in human multidrug resistant MCF/ADR cells assessed as suppression of caspase 9 activation at 0.3 uM after 48 hrs by immunoblot analysis in presence of rottlerin; type: functional, cell-based
MCF/ADR [15] = assay: Increase in Bcl-2 levels in human multidrug resistant MCF/ADR cells at 0.3 uM by immunoblot analysis; type: functional, cell-based
MCF/ADR [16] = assay: Induction of apoptosis in human multidrug resistant MCF/ADR cells assessed as activation of caspase 7 at 0.3 uM by immunoblot analysis; type: functional, cell-based
[17] = Cell cycle arrest in human multidrug resistant MCF/ADR cells assessed as accumulation at G2/M phase at 0.3 uM after 72 hrs by propidium fluorescence flow cytometry; type: functional, cell-based
[18] = target: Transcription factor Jun (Homo sapiens) (UniProt P05412); assay: Reduction in induction of phosphorylated form of c-Jun in SP600125 pretreated human multidrug resistant MCF/ADR cells at 0.3 uM after 48 hrs by immunoblot analysis; type: cell-based
MCF = assay: Induction of c-Jun expression in human drug-sensitive MCF cells at 0.3 uM; type: functional, cell-based
[19] = Inhibition of nuclear protein kinase 1
MCF/WT [20] = assay: Induction of apoptosis in human drug-sensitive MCF/WT cells assessed as activation of caspase 7 at 0.3 uM by immunoblot analysis; type: functional, cell-based
Rhodopsin kinase GRK1 = target: T1, Rhodopsin kinase GRK1 (Homo sapiens, UniProt Q15835); assay: Inhibition of rhodopsin kinase
T1 sequence (Q15835 whole entry): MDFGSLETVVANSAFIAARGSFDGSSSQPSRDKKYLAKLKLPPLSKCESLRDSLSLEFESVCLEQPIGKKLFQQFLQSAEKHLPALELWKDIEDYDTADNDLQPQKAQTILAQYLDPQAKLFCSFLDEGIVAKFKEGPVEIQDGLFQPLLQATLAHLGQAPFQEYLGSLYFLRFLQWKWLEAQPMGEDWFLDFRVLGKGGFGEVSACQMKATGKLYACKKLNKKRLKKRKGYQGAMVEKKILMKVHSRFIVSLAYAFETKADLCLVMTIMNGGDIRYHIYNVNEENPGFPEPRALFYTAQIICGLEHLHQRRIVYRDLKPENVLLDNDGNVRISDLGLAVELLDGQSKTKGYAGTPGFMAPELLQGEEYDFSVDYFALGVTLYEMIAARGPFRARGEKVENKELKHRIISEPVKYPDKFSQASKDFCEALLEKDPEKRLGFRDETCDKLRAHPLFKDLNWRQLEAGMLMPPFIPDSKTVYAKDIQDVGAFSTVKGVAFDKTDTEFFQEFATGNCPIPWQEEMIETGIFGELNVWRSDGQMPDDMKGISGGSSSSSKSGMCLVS

[21] = target: Transcription factor Jun (Homo sapiens) (UniProt P05412); assay: Induction of c-Jun phosphorylation in human drug-sensitive MCF/WT cells at 0.3 uM; type: cell-based
MCF/ADR [22] = assay: Inhibition of induction of apoptosis in human multidrug resistant MCF/ADR cells assessed as inhibition of cleavage of lamin A at 0.3 uM after 48 hrs by immunoblot analysis in presence of pan-specific inhibitor; type: functional, cell-based
MCF/ADR [23] = assay: Reduction in induction of apoptosis in human multidrug resistant MCF/ADR cells assessed as suppression of lamin A cleavage at 0.3 uM after 48 hrs by immunoblot analysis in presence of rottlerin; type: functional, cell-based
[24] = Cell cycle arrest in human multidrug resistant MCF/ADR cells assessed as accumulation at G0/G1 phase at 0.3 uM after 24 hrs by propidium fluorescence flow cytometry; type: functional, cell-based
MCF/ADR [25] = assay: Induction of c-Jun expression in human multidrug resistant MCF/ADR cells at 0.3 uM; type: functional, cell-based
[26] = Cell cycle arrest in human drug-sensitive MCF/WT cells assessed as accumulation at G2/M phase at 0.3 uM after 24 hrs by propidium fluorescence flow cytometry; type: functional, cell-based
[27] = target: Transcription factor Jun (Homo sapiens) (UniProt P05412); assay: Reduction in induction of non phosphorylated form of c-Jun in SP600125 pretreated human multidrug resistant MCF/ADR cells at 0.3 uM after 48 hrs by immunoblot analysis; type: cell-based
[28] = Cell cycle arrest in human drug-sensitive MCF/WT cells assessed as accumulation at S phase at 0.3 uM after 72 hrs by propidium fluorescence flow cytometry; type: functional, cell-based
MCF/ADR [29] = assay: Induction of apoptosis in human multidrug resistant MCF/ADR cells assessed as accumulation of PARP at 0.3 uM after 48 hrs by immunoblot analysis; type: functional, cell-based
MCF/ADR [30] = assay: Blockade of apoptosis induction in human multidrug resistant MCF/ADR cells at 0.3 uM after 48 hrs in presence of rottlerin; type: functional, cell-based
[31] = Cell cycle arrest in human multidrug resistant MCF/ADR cells assessed as accumulation at S phase at 0.3 uM after 72 hrs by propidium fluorescence flow cytometry; type: functional, cell-based

NC(=O)c1cn([C@@H]2O[C@H](CO)[C@@H](O)[C@H]2O)c2ncnc(N)c12 [SANGIVAMYCIN]
Activity [1]: Active | Activity [2]: inactive | Activity (MCF/WT [3]): Active | Activity (MCF/ADR [4]): Active | Activity [5]: 23% | pIC50 [6]: 4.30 | Activity (MDA-MB-231): Active | Activity (MCF/WT [7]): inactive | Activity (MCF/ADR [8]): Active | Activity (MCF/WT [9]): Active | Activity [10]: Active | Activity [11]: Active | Activity (MCF/WT [12]): Active | Activity (MCF/ADR [13]): Active | Activity (MCF/ADR [14]): Active | Activity (MCF/ADR [15]): inactive | Activity (MCF/ADR [16]): Active | Activity [17]: 8% | Activity [18]: Active | Activity (MCF): Active | pKi [19]: 3.70 | Activity (MCF/WT [20]): inactive | pKi (Rhodopsin kinase GRK1): 6.74 | Activity [21]: inactive | Activity (MCF/ADR [22]): Active | Activity (MCF/ADR [23]): Active | Activity [24]: 33% | Activity (MCF/ADR [25]): Active | Activity [26]: 28% | Activity [27]: Active | Activity [28]: 11% | Activity (MCF/ADR [29]): Active | Activity (MCF/ADR [30]): Active | Activity [31]: 25%
